{"source": "PubChem BioAssay AID2060620", "about": "(Molecular Pharmacology Branch, DTP, NCI, 2025);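 also: spheroids exposed to the agents for 7 days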", "test_system": "328373-195-R-J1-PDC complex spheroids, viability % test/control", "experiment": "Anticancer human tumor 328373-195-R-J1-PDC patient-derived head and neck squamous carcinoma cell line growth inhibition [CLK]", "conditions": "for IC50: curve of first compound; for viability, T/C: stronger effect = lower value", "outline": "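Multi-cell-type spheroids combined patient-derived tumor cells with HUVEC endothelial cells and human mesenchymal stem cells. Paired agents were dosed in half-log steps down from about clinical Cmax, or from 10 microM where Cmax was unknown.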", "key": {"[1]": {"conditions": "second compound 0.0316 µM, first compound 0.0316 µM"}, "[2]": {"conditions": "second compound 0.0316 µM, first compound 0.1 µM"}, "[3]": {"conditions": "second compound 0.0316 µM, first compound 0.316 µM"}, "[4]": {"conditions": "second compound 0.0316 µM, first compound 1 µM"}, "[5]": {"conditions": "second compound 0.1 µM, first compound 0.0316 µM"}, "[6]": {"conditions": "second compound 0.1 µM, first compound 0.1 µM"}, "[7]": {"conditions": "second compound 0.1 µM, first compound 0.316 µM"}, "[8]": {"conditions": "second compound 0.1 µM, first compound 1 µM"}, "[9]": {"conditions": "second compound 0.316 µM, first compound 0.0316 µM"}, "[10]": {"conditions": "second compound 0.316 µM, first compound 0.1 µM"}, "[11]": {"conditions": "second compound 0.316 µM, first compound 0.316 µM"}, "[12]": {"conditions": "second compound 0.316 µM, first compound 1 µM"}, "[13]": {"conditions": "second compound 1 µM, first compound 0.0316 µM"}, "[14]": {"conditions": "second compound 1 µM, first compound 0.1 µM"}, "[15]": {"conditions": "second compound 1 µM, first compound 0.316 µM"}, "[16]": {"conditions": "second compound 1 µM, first compound 1 µM"}, "[17]": {"conditions": "second compound 3.16 µM, first compound 0.0316 µM"}, "[18]": {"conditions": "second compound 3.16 µM, first compound 0.1 µM"}, "[19]": {"conditions": "second compound 3.16 µM, first compound 0.316 µM"}, "[20]": {"conditions": "second compound 3.16 µM, first compound 1 µM"}, "[21]": {"conditions": "second compound 10 µM, first compound 0.0316 µM"}, "[22]": {"conditions": "second compound 10 µM, first compound 0.1 µM"}, "[23]": {"conditions": "second compound 10 µM, first compound 0.316 µM"}, "[24]": {"conditions": "second compound 10 µM, first compound 1 µM"}}, "data": [{"smiles": "CC(=O)O[C@H]1C(=O)[C@@]2(C)[C@H]([C@H](OC(=O)c3ccccc3)[C@]3(O)C[C@H](OC(=O)[C@H](O)[C@@H](NC(=O)c4ccccc4)c4ccccc4)C(C)=C1C3(C)C)[C@]1(OC(C)=O)CO[C@@H]1C[C@@H]2O", "note": "+ CN1CCN(c2cc(C(=O)Nc3cc4cc(-c5cnn(C)c5)ccc4cn3)ccn2)CC1", "values": [{"measurement": "IC50", "setting": "second compound 0.0316 µM", "result": "< 31.6", "unit": "nM"}, {"measurement": "IC50", "setting": "second compound 0.1 µM", "result": "< 31.6", "unit": "nM"}, {"measurement": "IC50", "setting": "second compound 0.316 µM", "result": "< 31.6", "unit": "nM"}, {"measurement": "IC50", "setting": "second compound 1 µM", "result": "< 31.6", "unit": "nM"}, {"measurement": "IC50", "setting": "second compound 3.16 µM", "result": "< 31.6", "unit": "nM"}, {"measurement": "IC50", "setting": "second compound 10 µM", "result": "< 31.6", "unit": "nM"}, {"measurement": "viability, T/C", "setting": "[1]", "result": 7.74, "unit": "%"}, {"measurement": "viability, T/C", "setting": "[2]", "result": 4.32, "unit": "%"}, {"measurement": "viability, T/C", "setting": "[3]", "result": 7.3, "unit": "%"}, {"measurement": "viability, T/C", "setting": "[4]", "result": 5.75, "unit": "%"}, {"measurement": "viability, T/C", "setting": "second compound 0.0316 µM, first compound 3.16 µM", "result": 9.83, "unit": "%"}, {"measurement": "viability, T/C", "setting": "second compound 0.0316 µM, first compound 10 µM", "result": 12.9, "unit": "%"}, {"measurement": "viability, T/C", "setting": "[5]", "result": 2.72, "unit": "%"}, {"measurement": "viability, T/C", "setting": "[6]", "result": 2.97, "unit": "%"}, {"measurement": "viability, T/C", "setting": "[7]", "result": 8.34, "unit": "%"}, {"measurement": "viability, T/C", "setting": "[8]", "result": 5.1, "unit": "%"}, {"measurement": "viability, T/C", "setting": "second compound 0.1 µM, first compound 3.16 µM", "result": 7.93, "unit": "%"}, {"measurement": "viability, T/C", "setting": "second compound 0.1 µM, first compound 10 µM", "result": 9.97, "unit": "%"}, {"measurement": "viability, T/C", "setting": "[9]", "result": 3.35, "unit": "%"}, {"measurement": "viability, T/C", "setting": "[10]", "result": 5.31, "unit": "%"}, {"measurement": "viability, T/C", "setting": "[11]", "result": 5.81, "unit": "%"}, {"measurement": "viability, T/C", "setting": "[12]", "result": 5.22, "unit": "%"}, {"measurement": "viability, T/C", "setting": "second compound 0.316 µM, first compound 3.16 µM", "result": 5.91, "unit": "%"}, {"measurement": "viability, T/C", "setting": "second compound 0.316 µM, first compound 10 µM", "result": 10.6, "unit": "%"}, {"measurement": "viability, T/C", "setting": "[13]", "result": 0.18, "unit": "%"}, {"measurement": "viability, T/C", "setting": "[14]", "result": 0.12, "unit": "%"}, {"measurement": "viability, T/C", "setting": "[15]", "result": 0.12, "unit": "%"}, {"measurement": "viability, T/C", "setting": "[16]", "result": 0.07, "unit": "%"}, {"measurement": "viability, T/C", "setting": "second compound 1 µM, first compound 3.16 µM", "result": 0.08, "unit": "%"}, {"measurement": "viability, T/C", "setting": "second compound 1 µM, first compound 10 µM", "result": 0.07, "unit": "%"}, {"measurement": "viability, T/C", "setting": "[17]", "result": 2.71, "unit": "%"}, {"measurement": "viability, T/C", "setting": "[18]", "result": 0.11, "unit": "%"}, {"measurement": "viability, T/C", "setting": "[19]", "result": 0.12, "unit": "%"}, {"measurement": "viability, T/C", "setting": "[20]", "result": 0.08, "unit": "%"}, {"measurement": "viability, T/C", "setting": "second compound 3.16 µM, first compound 3.16 µM", "result": 0.76, "unit": "%"}, {"measurement": "viability, T/C", "setting": "second compound 3.16 µM, first compound 10 µM", "result": 2.99, "unit": "%"}, {"measurement": "viability, T/C", "setting": "[21]", "result": 1.85, "unit": "%"}, {"measurement": "viability, T/C", "setting": "[22]", "result": 1.39, "unit": "%"}, {"measurement": "viability, T/C", "setting": "[23]", "result": 0.15, "unit": "%"}, {"measurement": "viability, T/C", "setting": "[24]", "result": 0.17, "unit": "%"}, {"measurement": "viability, T/C", "setting": "second compound 10 µM, first compound 3.16 µM", "result": 2.04, "unit": "%"}, {"measurement": "viability, T/C", "setting": "second compound 10 µM, first compound 10 µM", "result": 2.05, "unit": "%"}]}, {"smiles": "CCc1c2c(nc3ccc(O)cc13)-c1cc3c(c(=O)n1C2)COC(=O)[C@]3(O)CC", "note": "+ CN1CCN(c2cc(C(=O)Nc3cc4cc(-c5cnn(C)c5)ccc4cn3)ccn2)CC1", "values": [{"measurement": "IC50", "setting": "second compound 0.0316 µM", "result": "< 3.16", "unit": "nM"}, {"measurement": "IC50", "setting": "second compound 0.1 µM", "result": "< 3.16", "unit": "nM"}, {"measurement": "IC50", "setting": "second compound 0.316 µM", "result": "< 3.16", "unit": "nM"}, {"measurement": "IC50", "setting": "second compound 1 µM", "result": "< 3.16", "unit": "nM"}, {"measurement": "IC50", "setting": "second compound 3.16 µM", "result": "< 3.16", "unit": "nM"}, {"measurement": "IC50", "setting": "second compound 10 µM", "result": "< 3.16", "unit": "nM"}, {"measurement": "viability, T/C", "setting": "second compound 0.0316 µM, first compound 0.00316 µM", "result": 12.2, "unit": "%"}, {"measurement": "viability, T/C", "setting": "second compound 0.0316 µM, first compound 0.01 µM", "result": 1.41, "unit": "%"}, {"measurement": "viability, T/C", "setting": "[1]", "result": 2.09, "unit": "%"}, {"measurement": "viability, T/C", "setting": "[2]", "result": 0.42, "unit": "%"}, {"measurement": "viability, T/C", "setting": "[3]", "result": 0.89, "unit": "%"}, {"measurement": "viability, T/C", "setting": "[4]", "result": 2.49, "unit": "%"}, {"measurement": "viability, T/C", "setting": "second compound 0.1 µM, first compound 0.00316 µM", "result": 10.9, "unit": "%"}, {"measurement": "viability, T/C", "setting": "second compound 0.1 µM, first compound 0.01 µM", "result": 2.12, "unit": "%"}, {"measurement": "viability, T/C", "setting": "[5]", "result": 2.78, "unit": "%"}, {"measurement": "viability, T/C", "setting": "[6]", "result": 0.32, "unit": "%"}, {"measurement": "viability, T/C", "setting": "[7]", "result": 1.24, "unit": "%"}, {"measurement": "viability, T/C", "setting": "[8]", "result": 0.18, "unit": "%"}, {"measurement": "viability, T/C", "setting": "second compound 0.316 µM, first compound 0.00316 µM", "result": 7.1, "unit": "%"}, {"measurement": "viability, T/C", "setting": "second compound 0.316 µM, first compound 0.01 µM", "result": 3.19, "unit": "%"}, {"measurement": "viability, T/C", "setting": "[9]", "result": 1.44, "unit": "%"}, {"measurement": "viability, T/C", "setting": "[10]", "result": 0.21, "unit": "%"}, {"measurement": "viability, T/C", "setting": "[11]", "result": 0.41, "unit": "%"}, {"measurement": "viability, T/C", "setting": "[12]", "result": 0.05, "unit": "%"}, {"measurement": "viability, T/C", "setting": "second compound 1 µM, first compound 0.00316 µM", "result": 0.07, "unit": "%"}, {"measurement": "viability, T/C", "setting": "second compound 1 µM, first compound 0.01 µM", "result": 1.93, "unit": "%"}, {"measurement": "viability, T/C", "setting": "[13]", "result": 2.72, "unit": "%"}, {"measurement": "viability, T/C", "setting": "[14]", "result": 0.03, "unit": "%"}, {"measurement": "viability, T/C", "setting": "[15]", "result": 0.04, "unit": "%"}, {"measurement": "viability, T/C", "setting": "[16]", "result": 0.78, "unit": "%"}, {"measurement": "viability, T/C", "setting": "second compound 3.16 µM, first compound 0.00316 µM", "result": 0.96, "unit": "%"}, {"measurement": "viability, T/C", "setting": "second compound 3.16 µM, first compound 0.01 µM", "result": 0.54, "unit": "%"}, {"measurement": "viability, T/C", "setting": "[17]", "result": 0.11, "unit": "%"}, {"measurement": "viability, T/C", "setting": "[18]", "result": 2.41, "unit": "%"}, {"measurement": "viability, T/C", "setting": "[19]", "result": 2.52, "unit": "%"}, {"measurement": "viability, T/C", "setting": "[20]", "result": 0.11, "unit": "%"}, {"measurement": "viability, T/C", "setting": "second compound 10 µM, first compound 0.00316 µM", "result": 0.51, "unit": "%"}, {"measurement": "viability, T/C", "setting": "second compound 10 µM, first compound 0.01 µM", "result": 0.1, "unit": "%"}, {"measurement": "viability, T/C", "setting": "[21]", "result": 1.56, "unit": "%"}, {"measurement": "viability, T/C", "setting": "[22]", "result": 0.07, "unit": "%"}, {"measurement": "viability, T/C", "setting": "[23]", "result": 1.03, "unit": "%"}, {"measurement": "viability, T/C", "setting": "[24]", "result": 2.56, "unit": "%"}]}]}
